# Test results as given in ChEMBL document CHEMBL5370616, “Novel Nitric Oxide Donor-Azole Conjugation Strategy for Efficient Treatment of Cryptococcus neoformans Infections” (J Med Chem, 2023).
# Active and inactive are the calls of the source. The calls are words filed in the database; no cut-off is given here.
# Columns and labels:
# [1] = test system: Cryptococcus neoformans; test: Antifungal activity against Cryptococcus neoformans H99 assessed as reduction in fungal growth incubated for 72 hrs by CLSI protocol based microplate reader analysis; type: functional
# [2] = test system: Candida albicans; test: Antifungal activity against Candida albicans 0304103 assessed as reduction in fungal growth incubated for 48 hrs by CLSI protocol based microplate reader analysis; type: functional
# [3] = test system: Cryptococcus neoformans; test: Inhibition of biofilm formation in Cryptococcus neoformans H99 at 0.25 ug/ml incubated for 24 hrs by XTT reduction assay; type: functional
# [4] = test system: Candida albicans; test: Antifungal activity against Candida albicans SC5314 assessed as reduction in fungal growth incubated for 48 hrs by CLSI protocol based microplate reader analysis; type: functional
# [5] = test system: Cryptococcus neoformans; test: Antifungal activity against Cryptococcus neoformans H99 assessed as reduction in fungal growth at 0.25 to 8 ug/ml incubated upto 72 hrs by microplate reader analysis; type: functional, organism-based; conditions: dose 0.25-8 µg/ml
# [6] = test system: Nakaseomyces glabratus; test: Antifungal activity against Candida glabrata 10639 assessed as reduction in fungal growth incubated for 48 hrs by CLSI protocol based microplate reader analysis; type: functional
# [7] = test system: Cryptococcus neoformans; test: Inhibition of biofilm formation in Cryptococcus neoformans H99 at 16 to 64 ug/ml incubated for 24 hrs by XTT reduction assay; type: functional, organism-based; conditions: dose 16-64 µg/ml
Compound,MIC80 [1] [µg/mL],MIC80 [2] [µg/mL],MIC80 [4] [µg/mL],MIC80 [6] [µg/mL],inhibition at 0.25 µg/mL [3] [%],Activity [5],inhibition [7]
CN(Cc1ccc(OCCCOc2ccc(CC(=O)OCCCO[N+](=O)[O-])cc2)cc1)CC(O)(Cn1cncn1)c1ccc(F)cc1F (configuration not stated),0.125,> 64,1,1,> 50,Dose-Dependent Effect,–
CN(CC(O)(Cn1cncn1)c1ccc(F)cc1F)c1cc(O/N=[N+](\[O-])N(C)CCO)c([N+](=O)[O-])cc1[N+](=O)[O-] (configuration not stated),64,> 64,> 64,> 64,–,–,–
CN(CC(O)(Cn1cncn1)c1ccc(F)cc1F)c1cc(O/N=[N+](\[O-])N2CCC[C@@H]2CO)c([N+](=O)[O-])cc1[N+](=O)[O-] (some centres not stated),64,> 64,> 64,> 64,–,–,–
CN(Cc1ccc(CNCCOc2no[n+]([O-])c2S(=O)(=O)c2ccccc2)cc1)CC(O)(Cn1cncn1)c1ccc(F)cc1F (configuration not stated),2,64,64,8,–,–,–
CN(CC(O)(Cn1cncn1)c1ccc(F)cc1F)c1cc(O/N=[N+](\[O-])N2CCC(O)CC2)c([N+](=O)[O-])cc1[N+](=O)[O-] (configuration not stated),64,> 64,> 64,> 64,–,–,–
CC1(C)N(O)C(c2ccccc2)=[N+]([O-])C1(C)C,–,–,–,–,–,–,inactive
CN(Cc1ccc(CNCCCOc2no[n+]([O-])c2S(=O)(=O)c2ccccc2)cc1)CC(O)(Cn1cncn1)c1ccc(F)cc1F (configuration not stated),2,32,16,8,–,–,–

# Continued, in another order:
MIC80 [1] [µg/mL],MIC80 [2] [µg/mL],MIC80 [4] [µg/mL],MIC80 [6] [µg/mL],Compound,inhibition at 0.25 µg/mL [3] [%],Activity [5],inhibition [7]
4,> 64,8,4,CN(Cc1ccc(OCCCOc2ccc(CC(=O)OCCCCCCOc3no[n+]([O-])c3S(=O)(=O)c3ccccc3)cc2)cc1)CC(O)(Cn1cncn1)c1ccc(F)cc1F (configuration not stated),–,–,–
1,> 64,1,1,CN(Cc1ccc(OCCCOc2ccc(CC(=O)OCCOCCOc3no[n+]([O-])c3S(=O)(=O)c3ccccc3)cc2)cc1)CC(O)(Cn1cncn1)c1ccc(F)cc1F (configuration not stated),–,–,–
2,> 64,16,2,CN(Cc1ccc(OCCCOc2ccc(CC(=O)OCC#CCOc3no[n+]([O-])c3S(=O)(=O)c3ccccc3)cc2)cc1)CC(O)(Cn1cncn1)c1ccc(F)cc1F (configuration not stated),–,–,–
2,> 64,8,8,CN(Cc1ccc(CNCCCCCOc2no[n+]([O-])c2S(=O)(=O)c2ccccc2)cc1)CC(O)(Cn1cncn1)c1ccc(F)cc1F (configuration not stated),–,–,–
0.5,> 64,2,0.5,CN(Cc1ccc(OCCCOc2ccc(CC(=O)OCCCCO[N+](=O)[O-])cc2)cc1)CC(O)(Cn1cncn1)c1ccc(F)cc1F (configuration not stated),–,–,–
